From ChEMBL document CHEMBL4138256, “Design, Synthesis, and Biological Activity of 1,2,3-Triazolobenzodiazepine BET Bromodomain Inhibitors” (ACS Med Chem Lett, 2017)

Tests used:
[1] = biological target: T1, Bromodomain-containing protein 4 (Homo sapiens, UniProt O60885)
Description: Inhibition of human His-tagged Brd4 bromodomain 1 expressed in Escherichia coli BL21 (DE3) preincubated for 30 mins followed by addition of biotinylated acetyl-histone H4 peptide and measured after 1 hr by AlphaScreen assay

[2] = biological target: T1, Bromodomain-containing protein 4; remark: listed apart in the source
Description: Inhibition of human His-tagged Brd4 bromodomain 2 expressed in Escherichia coli BL21 (DE3) preincubated for 30 mins followed by addition of biotinylated acetyl-histone H4 peptide and measured after 1 hr by AlphaScreen assay

[3] = biological target: T2, Bromodomain-containing protein 2 (Homo sapiens, UniProt P25440); assay: Inhibition of human His-tagged Brd2 bromodomain 2 expressed in Escherichia coli BL21 (DE3) preincubated for 30 mins followed by addition of biotinylated acetyl-histone H4 peptide and measured after 1 hr by AlphaScreen assay
Target sequence in this assay (P25440 whole entry): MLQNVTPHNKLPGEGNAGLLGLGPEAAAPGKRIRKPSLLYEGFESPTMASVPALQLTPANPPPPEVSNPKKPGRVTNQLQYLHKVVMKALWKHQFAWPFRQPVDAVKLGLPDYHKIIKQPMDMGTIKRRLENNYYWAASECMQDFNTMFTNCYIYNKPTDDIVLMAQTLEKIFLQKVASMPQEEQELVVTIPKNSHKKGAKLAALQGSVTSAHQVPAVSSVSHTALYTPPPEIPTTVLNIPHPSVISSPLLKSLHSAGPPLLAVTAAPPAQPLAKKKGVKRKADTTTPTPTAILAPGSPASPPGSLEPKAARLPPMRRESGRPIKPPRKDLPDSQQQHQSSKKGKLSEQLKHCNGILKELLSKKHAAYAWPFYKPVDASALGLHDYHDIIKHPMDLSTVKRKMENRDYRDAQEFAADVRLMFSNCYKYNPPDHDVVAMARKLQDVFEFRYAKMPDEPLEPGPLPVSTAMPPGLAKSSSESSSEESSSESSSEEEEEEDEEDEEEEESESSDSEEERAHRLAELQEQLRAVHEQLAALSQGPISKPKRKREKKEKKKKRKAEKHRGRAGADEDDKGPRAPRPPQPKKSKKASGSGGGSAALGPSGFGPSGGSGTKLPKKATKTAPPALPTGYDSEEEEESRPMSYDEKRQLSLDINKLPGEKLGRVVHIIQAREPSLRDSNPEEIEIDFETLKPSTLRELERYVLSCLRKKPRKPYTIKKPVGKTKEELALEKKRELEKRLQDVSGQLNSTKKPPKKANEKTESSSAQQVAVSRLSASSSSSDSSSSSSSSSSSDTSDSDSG

[4] = biological target: T2, Bromodomain-containing protein 2; assay: Inhibition of human His-tagged Brd2 bromodomain 1 expressed in Escherichia coli BL21 (DE3) preincubated for 30 mins followed by addition of biotinylated acetyl-histone H4 peptide and measured after 1 hr by AlphaScreen assay
Target sequence in this assay (P25440 whole entry): as above

[5] = biological target: Bromodomain-containing protein 3 (Homo sapiens, UniProt Q15059); assay: Inhibition of human His-tagged Brd3 bromodomain 1 expressed in Escherichia coli BL21 (DE3) preincubated for 30 mins followed by addition of biotinylated acetyl-histone H4 peptide and measured after 1 hr by AlphaScreen assay
HEL 92.1.7 = assay: Antiproliferative activity against human HEL 92.1.7 cells after 72 hrs by Cell-TiterGlo assay; type: functional, cell-based; conditions: HEL 92.1.7, 72 h
HL-60 = assay: Antiproliferative activity against human HL60 cells after 72 hrs by Cell-TiterGlo assay; type: functional, cell-based; conditions: HL-60, 72 h
Raji = assay: Antiproliferative activity against human Raji cells after 72 hrs by Cell-TiterGlo assay; type: functional, cell-based
[6] = Antiproliferative activity against mouse 494H cells after 72 hrs by Cell-TiterGlo assay; type: functional, cell-based
SUD4 = assay: Antiproliferative activity against human SU-DHL4 cells after 72 hrs by Cell-TiterGlo assay; type: functional, cell-based; conditions: SU-DHL-4, 72 h
[7] = Antiproliferative activity against human MLL-AF9 cells after 72 hrs by Cell-TiterGlo assay; type: functional, cell-based; conditions: MLL-AF9, 72 h
K562 = assay: Antiproliferative activity against human K562 cells after 72 hrs by Cell-TiterGlo assay; type: functional, cell-based; conditions: K562, 72 h
CCRF-CEM = assay: Antiproliferative activity against human CCRF-CEM cells after 72 hrs by Cell-TiterGlo assay; type: functional, cell-based
DOHH-2 = assay: Antiproliferative activity against human DOHH2 cells after 72 hrs by Cell-TiterGlo assay; type: functional, cell-based; conditions: DOHH-2, 72 h
MV4-11 = assay: Antiproliferative activity against human MV4-11 cells after 72 hrs by Cell-TiterGlo assay; type: functional, cell-based; conditions: MV4-11, 72 h
RPMI-8226 = assay: Antiproliferative activity against human RPMI8226 cells after 72 hrs by Cell-TiterGlo assay; type: functional, cell-based; conditions: RPMI-8226, 72 h
[8] = Antiproliferative activity against mouse 148I cells after 72 hrs by Cell-TiterGlo assay; type: functional, cell-based
[9] = biological target: T2, Bromodomain-containing protein 2
Target sequence in this assay (P25440 whole entry, looked up): as the sequence (P25440 whole entry) above
Description: Binding affinity to His-tagged human Brd2 bromodomain 2 (1 to 473 residues) assessed as association rate constant by surface plasmon resonance assay

[10] = biological target: T2, Bromodomain-containing protein 2; remark: listed apart in the source
Target sequence in this assay (P25440 whole entry, looked up): as the sequence (P25440 whole entry) above
Description: Binding affinity to His-tagged human Brd2 bromodomain 1 (1 to 473 residues) assessed as association rate constant by suface plasmon resonance assay

Chain of Bromodomain-containing protein 3 (Q15059 whole entry): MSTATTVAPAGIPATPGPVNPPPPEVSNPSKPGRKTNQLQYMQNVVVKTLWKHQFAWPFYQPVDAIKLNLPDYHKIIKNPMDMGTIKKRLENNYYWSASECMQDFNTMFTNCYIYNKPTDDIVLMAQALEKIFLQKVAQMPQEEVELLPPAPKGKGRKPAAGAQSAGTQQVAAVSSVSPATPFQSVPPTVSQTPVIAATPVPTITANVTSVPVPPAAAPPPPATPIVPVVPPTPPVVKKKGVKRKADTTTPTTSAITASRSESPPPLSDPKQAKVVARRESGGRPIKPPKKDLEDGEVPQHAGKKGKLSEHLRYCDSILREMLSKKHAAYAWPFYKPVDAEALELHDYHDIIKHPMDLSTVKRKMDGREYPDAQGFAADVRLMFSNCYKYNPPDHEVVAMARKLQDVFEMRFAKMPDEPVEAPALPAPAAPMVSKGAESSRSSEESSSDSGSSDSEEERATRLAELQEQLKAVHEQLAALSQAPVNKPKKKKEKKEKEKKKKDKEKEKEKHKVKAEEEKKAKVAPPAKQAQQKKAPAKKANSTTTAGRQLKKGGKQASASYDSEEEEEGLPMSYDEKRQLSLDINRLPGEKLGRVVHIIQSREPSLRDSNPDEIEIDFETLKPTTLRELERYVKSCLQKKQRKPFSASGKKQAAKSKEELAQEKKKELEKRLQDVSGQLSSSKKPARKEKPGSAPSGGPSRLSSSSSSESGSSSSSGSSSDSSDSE

Structure (SMILES)	IC50 [1] [nM]	IC50 [2] [nM]	IC50 [3] [nM]	IC50 [4] [nM]	IC50 [5] [nM]	also measured
Cc1nnn2c1-c1ccc(C#N)cc1N(c1ccc(Cl)cc1)CC2	11	13	–	–	–	–
Cc1nnn2c1-c1ccc(C(=O)NCc3ccccc3)cc1N(c1ccc(Cl)cc1)CC2	35	15	–	–	–	–
Cc1nnn2c1-c1ccccc1N(c1ccc(Cl)cc1)C[C@H]2C	–	–	25	38	–	–
Cc1nnn2c1-c1ccc(C(=O)N[C@H](C)c3ccccc3)cc1N(c1ccc(Cl)cc1)CC2	–	–	–	–	13	–
Cc1nnn2c1-c1ccc(C(=O)Nc3ccccc3)cc1N(c1ccc(Cl)cc1)CC2	–	–	–	–	14	–
Cc1nnn2c1-c1ccccc1N(c1ccc(Cl)cc1)CC2CCO (stereo not drawn)	52	36	45	340	44	–
Cc1nnn2c1-c1ccc(-c3nn[nH]n3)cc1N(c1ccc(Cl)cc1)CC2	3	2	–	–	–	–
Cc1nnn2c1-c1ccc(C(=O)NS(C)(=O)=O)cc1N(c1ccc(Cl)cc1)CC2	13	7	–	–	–	–
Cc1nnn2c1-c1ccc(C(O)C(F)(F)F)cc1N(c1ccc(Cl)cc1)CC2 (stereo not drawn)	43	23	–	–	–	–
Cc1ccc(-c2ccc3c(c2)N(c2ccc(Cl)cc2)CCn2nnc(C)c2-3)cn1	16	7	–	–	10	–
Cc1nnn2c1-c1ccc(C(=O)NC(c3ccccc3)c3ccccc3)cc1N(c1ccc(Cl)cc1)CC2	–	–	44	151	39	–
Cc1nnn2c1-c1ccccc1N(c1ccccc1)C(=O)C2	> 10000	> 10000	> 10000	> 10000	> 10000	–
Cc1nnn2c1-c1ccccc1N(Cc1cccc(Br)c1)CC2	29	17	44	129	21	–
Cc1nnn2c1-c1ccc(C(=O)O)cc1N(c1ccc(Cl)cc1)CC2	–	–	50	185	16	–
Cc1nnn2c1-c1ccc(C(=O)N[C@@H](C)c3ccc(F)cc3)cc1N(c1ccc(Cl)cc1)CC2	–	–	–	–	23	–
Cc1nnn2c1-c1ccc(C(=O)NS(=O)(=O)c3ccccc3)cc1N(c1ccc(Cl)cc1)CC2	21	10	25	54	21	–
Cc1nnn2c1-c1ccc(C(N)=O)cc1N(c1ccc(Cl)cc1)CC2	6	2	–	–	–	–
Cc1nnn2c1-c1ccc(Cn3cccn3)cc1N(c1ccc(Cl)cc1)CC2	45	38	–	–	52	–
Cc1nnn2c1-c1ccccc1N(c1ccccc1)CC2	28 to 39.4	12 to 21.5	–	–	–	–
Cc1sc2c(c1C)C(c1ccc(Cl)cc1)=NC(CC(=O)OC(C)(C)C)c1nnc(C)n1-2 (stereo not drawn)	–	–	–	–	–	EC50 (HEL 92.1.7): 180 nM; EC50 (HL-60): 51 nM; EC50 (Raji): 330 nM; EC50 [6]: 122 nM; EC50 (SUD4): 660 nM; EC50 [7]: 64 nM; EC50 (K562): > 10000 nM; EC50 (CCRF-CEM): 2040 nM; EC50 (DOHH-2): 279 nM; EC50 (MV4-11): 39 nM; EC50 (RPMI-8226): 258 nM; EC50 [8]: 284 nM
Cc1nnn2c1-c1ccc(-c3ccc(N)nc3)cc1N(c1ccc(Cl)cc1)CC2	13	6	–	–	9	EC50 (HEL 92.1.7): 400 nM; EC50 (HL-60): 152 nM; EC50 (Raji): 560 nM; Ka [9]: 2.62 ×10⁵ /M/s; EC50 [6]: 166 nM; EC50 (SUD4): 977 nM; EC50 [7]: 77 nM; EC50 (K562): > 10000 nM; EC50 (CCRF-CEM): 1360 nM; EC50 (DOHH-2): 561 nM; EC50 (MV4-11): 140 nM; EC50 (RPMI-8226): 631 nM; EC50 [8]: 1280 nM; Ka [10]: 2.9 ×10⁵ /M/s
Cc1nnn2c1-c1ccc(-c3cc[nH]n3)cc1N(c1ccc(Cl)cc1)CC2	14	7	–	–	10	EC50 (HEL 92.1.7): 720 nM; EC50 (HL-60): 139 nM; EC50 (Raji): 780 nM; EC50 [6]: 194 nM; EC50 (SUD4): 570 nM; EC50 [7]: 111 nM; EC50 (K562): > 10000 nM; EC50 (CCRF-CEM): 2220 nM; EC50 (DOHH-2): 285 nM; EC50 (MV4-11): 200 nM; EC50 (RPMI-8226): 495 nM; EC50 [8]: 973 nM
Cc1nnn2c1-c1ccccc1N(c1ccc(Cl)cc1)C[C@@H]2C	–	–	34	53	–	–
Cc1nnn2c1-c1ccc(C(=O)N[C@@H](C)c3ccccc3)cc1N(c1ccc(Cl)cc1)CC2	–	–	–	–	12	–
